1 compound from article PMC7062757 (2020) can be followed below.

In test [1] the test system is Mango II (RNA, aptamer) GGCACGUACGAAGGAGAGGAGAGGAAGAGGAGAGUACGUGC
Nature of the test: fluorescence titration, Hill fit. The note with it: 140 mM KCl, 1 mM MgCl2; 10 mM sodium phosphate, pH 7.2, 22 °C; 40 nM RNA; apparent; per site.

In test [2] the test system is M2 x3 array (5 nt) (Mango II x3, M2x3) (RNA, aptamer) GGCACGUACGAAGGAGAGGAGAGGAAGAGGAGAGUACGUGCUUUUUGGACAUGCCGAAGGAGAGGAGAGGAAGAGGAGAGGCAUGUCCUUUUUGGGUGCAUCGAAGGAGAGGAGAGGAAGAGGAGAGAUGCACCC
The experiment in a line: fluorescence titration, Hill fit. The note with it: 140 mM KCl, 1 mM MgCl2; 10 mM sodium phosphate, pH 7.2, 22 °C; 40 nM RNA; apparent; per site.

Turning to `CN1C=CC(=Cc2sc3ccccc3[n+]2CC(=O)NCCOCCOCCOCCNC(=O)CCCC[C@@H]2SC[C@@H]3NC(=O)N[C@@H]32)c2ccccc21`, the “Kd,app” value in test [1] stood at 30 ± 4 nM; in test [2], 80 ± 6 nM.
